*1 amine or outer side, *2 acyl side, *3 side chain or, on linkers, in order; H or OH if unused. Where a SMILES comes first, the peptide text is derived from it. Side-chain parts run from the residue outwards. [ ]: non-standard residue; d: D form. The star is where a group is joined. C20 diacid = O=C(O)CCCCCCCCCCCCCCCCCCC(=O)*; γGlu = O=C(O)[C@H](CCC(=O)[*:2])N[*:1]; αMeF = C[C@](N)(Cc1ccccc1)C(=O)O; 4Pal = N[C@@H](Cc1ccncc1)C(=O)O; αMeL = CC(C)C[C@](C)(N)C(=O)O; AEEA = NCCOCCOCC(=O)O; Aib = CC(C)(N)C(=O)O
Legend:
Assay in all cases: cAMP functional assay (HTRF) in HEK293 cells in presence of 0.1% casein
Format in all cases: cell-based
[1] = biological target: T1, human GLP-1 receptor (GLP-1R) (Homo sapiens, UniProt P43220); settings: HEK293 cells expressing human GLP-1R, geometric mean, read-out: hGLP1R cAMP Rel EC50 nM (SEM, n)
T1 construct: expressed in transfected cells; host or cells: HEK293

[2] = biological target: T2, human glucose-dependent insulinotropic peptide receptor (GIPR) (Homo sapiens, UniProt P48546); settings: HEK293 cells expressing human GIPR, geometric mean, read-out: hGIPR cAMP Rel EC50 nM (SEM, n)
T2 construct: expressed in transfected cells; host or cells: HEK293
T2 sequence (P48546 22-466): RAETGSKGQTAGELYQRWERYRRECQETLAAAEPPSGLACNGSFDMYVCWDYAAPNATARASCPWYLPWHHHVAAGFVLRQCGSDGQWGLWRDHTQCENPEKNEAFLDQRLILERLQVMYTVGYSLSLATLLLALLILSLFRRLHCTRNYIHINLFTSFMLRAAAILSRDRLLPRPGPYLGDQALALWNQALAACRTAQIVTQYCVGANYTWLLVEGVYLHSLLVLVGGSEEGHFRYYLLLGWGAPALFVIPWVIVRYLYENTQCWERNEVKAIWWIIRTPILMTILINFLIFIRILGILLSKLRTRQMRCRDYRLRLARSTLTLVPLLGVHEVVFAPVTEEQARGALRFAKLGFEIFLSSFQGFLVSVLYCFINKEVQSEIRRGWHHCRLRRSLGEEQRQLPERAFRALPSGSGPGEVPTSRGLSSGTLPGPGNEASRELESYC

[3] = biological target: T3, human glucagon receptor (GcgR) (Homo sapiens, UniProt P47871); settings: HEK293 cells expressing human GcgR, geometric mean, read-out: hGcgR cAMP Rel EC50 nM (SEM, n)
T3 construct: expressed in transfected cells; host or cells: HEK293
T3 sequence (P47871 26-477): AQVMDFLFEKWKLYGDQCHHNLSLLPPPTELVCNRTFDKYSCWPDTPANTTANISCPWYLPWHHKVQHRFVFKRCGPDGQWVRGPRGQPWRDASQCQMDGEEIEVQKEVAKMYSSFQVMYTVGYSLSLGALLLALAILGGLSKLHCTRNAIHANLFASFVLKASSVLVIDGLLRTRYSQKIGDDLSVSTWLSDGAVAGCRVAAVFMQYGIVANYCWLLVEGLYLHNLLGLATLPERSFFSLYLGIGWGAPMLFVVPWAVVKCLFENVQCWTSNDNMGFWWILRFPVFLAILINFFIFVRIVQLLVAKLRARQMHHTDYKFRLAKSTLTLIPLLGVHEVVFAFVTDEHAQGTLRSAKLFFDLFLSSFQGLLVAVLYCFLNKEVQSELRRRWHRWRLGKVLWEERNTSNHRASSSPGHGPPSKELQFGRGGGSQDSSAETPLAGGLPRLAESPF

T1 sequence (P43220 24-463): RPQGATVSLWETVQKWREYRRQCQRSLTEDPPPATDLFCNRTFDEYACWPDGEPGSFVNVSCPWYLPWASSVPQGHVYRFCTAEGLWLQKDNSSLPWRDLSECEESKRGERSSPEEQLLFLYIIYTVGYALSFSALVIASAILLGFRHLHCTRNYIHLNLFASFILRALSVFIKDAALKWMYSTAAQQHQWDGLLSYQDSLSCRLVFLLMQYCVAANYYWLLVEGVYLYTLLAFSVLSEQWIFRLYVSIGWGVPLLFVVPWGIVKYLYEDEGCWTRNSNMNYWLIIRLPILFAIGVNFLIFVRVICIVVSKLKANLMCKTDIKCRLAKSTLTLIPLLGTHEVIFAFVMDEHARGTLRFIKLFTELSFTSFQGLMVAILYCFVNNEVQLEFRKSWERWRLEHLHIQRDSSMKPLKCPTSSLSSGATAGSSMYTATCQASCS

| Compound | EC50 [1] | EC50 [2] | EC50 [3] |
| --- | --- | --- | --- |
| CC[C@H](C)[C@H](NC(=O)[C@H](CO)NC(=O)[C@H](Cc1ccc(O)cc1)NC(=O)[C@H](CC(=O)O)NC(=O)[C@H](CO)NC(=O)[C@@H](NC(=O)[C@](C)(Cc1ccccc1)NC(=O)[C@@H](NC(=O)CNC(=O)[C@H](CCC(=O)O)NC(=O)C(C)(C)NC(=O)[C@@H](N)Cc1ccc(O)cc1)[C@@H](C)O)[C@@H](C)CC)C(=O)N[C@@H](C)C(=O)N[C@@H](CC(C)C)C(=O)N[C@@H](CC(=O)O)C(=O)N[C@@H](CCCCN)C(=O)N[C@@H](CCCCNC(=O)COCCOCCNC(=O)COCCOCCNC(=O)CC[C@H](NC(=O)CCCCCCCCCCCCCCCCCCC(=O)O)C(=O)O)C(=O)N[C@@H](Cc1c[nH]cn1)C(=O)N[C@@H](CCC(N)=O)C(=O)NC(C)(C)C(=O)N[C@@H](CC(=O)O)C(=O)N[C@@H](Cc1ccccc1)C(=O)N[C@H](C(=O)N[C@@H](CCC(=O)O)C(=O)N[C@@H](Cc1ccncc1)C(=O)N[C@@H](CC(C)C)C(=O)N[C@@H](CC(C)C)C(=O)N[C@@H](CCC(=O)O)C(=O)N[C@H](C(=O)NCC(=O)N1CCC[C@H]1C(=O)N[C@@H](CO)C(=O)N[C@@H](CO)C(=O)NCC(=O)N[C@@H](C)C(=O)N1CCC[C@H]1C(=O)N1CCC[C@H]1C(=O)N1CCC[C@H]1C(=O)N[C@@H](CO)C(N)=O)[C@@H](C)O)C(C)C [Example 41] (H-Y[Aib]EGT[αMeF]ISDYSIALDKK([AEEA-AEEA-γGlu-C20 diacid])HQ[Aib]DFVE[4Pal]LLETGPSSGAPPPS-NH2) | 1800 nM | 0.0281 nM | > 5000 nM |
| CC[C@H](C)[C@H](NC(=O)[C@H](Cc1ccccc1)NC(=O)[C@@H](NC(=O)CNC(=O)[C@H](CCC(=O)O)NC(=O)C(C)(C)NC(=O)[C@@H](N)Cc1ccc(O)cc1)[C@@H](C)O)C(=O)N[C@@H](CO)C(=O)N[C@@H](CC(=O)O)C(=O)N[C@@H](Cc1ccc(O)cc1)C(=O)N[C@@H](CO)C(=O)N[C@H](C(=O)N[C@@](C)(CC(C)C)C(=O)N[C@@H](CC(C)C)C(=O)N[C@@H](CC(=O)O)C(=O)N[C@@H](CCCCN)C(=O)N[C@@H](CCCCNC(=O)COCCOCCNC(=O)COCCOCCNC(=O)CC[C@H](NC(=O)CCCCCCCCCCCCCCCCCCC(=O)O)C(=O)O)C(=O)N[C@@H](Cc1c[nH]cn1)C(=O)N[C@@H](CCC(N)=O)C(=O)NC(C)(C)C(=O)N[C@@H](CC(=O)O)C(=O)N[C@@H](Cc1ccccc1)C(=O)N[C@H](C(=O)N[C@@H](CCC(=O)O)C(=O)N[C@@H](Cc1ccc(O)cc1)C(=O)N[C@@H](CC(C)C)C(=O)N[C@@H](CC(C)C)C(=O)N[C@@H](CCC(=O)O)C(=O)NCC(=O)NCC(=O)N1CCC[C@H]1C(=O)N[C@@H](CO)C(=O)N[C@@H](CO)C(=O)NCC(=O)N[C@@H](C)C(=O)N1CCC[C@H]1C(=O)N1CCC[C@H]1C(=O)N1CCC[C@H]1C(=O)N[C@@H](CO)C(N)=O)C(C)C)[C@@H](C)CC [Example 69] (H-Y[Aib]EGTFISDYSI[αMeL]LDKK([AEEA-AEEA-γGlu-C20 diacid])HQ[Aib]DFVEYLLEGGPSSGAPPPS-NH2) | > 5000 nM | 0.0302 nM | 803 nM |
